The numbers were not newly measured in patent US20090304721A1, “TOXIN […] RECEPTOR ANTIBODIES” (priority 2005, published 2009), which cites them from elsewhere.

For the series the following is noted: compared with vincristine and vinblastine; cited from earlier work.

In the case of `COc1cc2cc(c1Cl)N(C)C(=O)C[C@H](OC(=O)[C@H](C)N(C)C(C)=O)[C@]1(C)O[C@H]1[C@H](C)[C@@H]1C[C@@](O)(NC(=O)O1)[C@H](OC)/C=C/C=C(\C)C2` [Maytansine], the “cytotoxicity in vitro relative to vinca alkaloids” value is recorded as 200 to 1,000 fold.
